Values quoted from earlier work, collected in patent US6528013B1, “Uncomplexed cyclodextrin compositions for odor and wrinkle control” (The Procter & Gamble Company, priority 1998, dated 2003).

SMILES	solubility in water
OCCc1ccccc1 [2-phenylethanol]	about 2%
OCc1ccccc1 [benzyl alcohol]	about 4%
CC(C)(O)C(Cl)(Cl)Cl [chlorobutanol, 1,1,1-Trichloro-2-methylpropan-2-ol, reference compound]	about 0.8%
[H]/N=C(\N/C(=N/[H])NCCCCCCNC(=N)NC(=N)Nc1ccc(Cl)cc1)Nc1ccc(Cl)cc1 [chlorhexidine digluconate, 1,1′-hexamethylene bis(5-(p-chlorophenyl)biguanide), reference compound]	about 70%
O=[N+]([O-])C1(Br)COCOC1 [Bronidox L, 5-bromo-5-nitro-1,3-dioxane]	about 0.46%
[Na+].[O-][n+]1ccccc1[S-] [sodium pyrithione]	about 50%
CC1(C)C(=O)N(CO)C(=O)N1CO [DMDM hydantoin, 1,3-bis(hydroxymethyl)-5,5-dimethyl-2,4-imidazolidinedione]	more than 50%
[H]/N=C(\N/C(=N/[H])NCCCCCCNC(=N)NC(=N)Nc1ccc(Cl)cc1)Nc1ccc(Cl)cc1 [chlorhexidine diacetate, 1,1′-hexamethylene bis(5-(p-chlorophenyl)biguanide), reference compound]	about 1.8%
ClC=CC[N+]12CN3CN(CN(C3)C1)C2.[Cl-] [Dowicil 200, 1-(3-Chlorallyl)-3,5,7-triaza-1-azoniaadamantane chloride]	freely soluble in water
O=[N+]([O-])C(Br)(CO)CO [Bronopol, 2-bromo-2-nitropropane-1,3-diol]	about 25%
OCCOc1ccccc1 [2-phenoxyethanol]	about 2.67%
